Where two headings read alike, the source gives them in different places.

This data set is described as follows: Metabolite analysis in plasma, liver, and kidney (TLC). Type of data set: in vivo, Crl:CD1(ICR) mice. The settings on record: Crl:CD1(ICR), mouse. An excerpt:
Precoated silica gel 60 F254 chromatoplate (20 × 20 cm, 0.25‐ or 0.5‐mm layer thickness, Merck KGaA) was used for two‐dimensional thin layer chromatography (2D‐TLC) analysis. The solvent systems were ethyl formate/formic acid (95/5, v/v) for the first dimension, and ethyl acetate/acetic acid (95/5, v/v) for the second dimension. The radioactivity on the TLC plates was detected by autoradiography using an imaging plate processed with a fluoro‐image analyzer (FLA‐9500, GE Healthcare). The identity of the metabolites was confirmed by co‐chromatography in comparison with authentic metabolite standards.
Three mice per sex at 8 weeks old were given a single oral dose of [^14C]epyrifenacil at 1 mg/kg with or without co‐administration of OATP inhibitors. […] At 2 h after administration of [^14C]epyifenacil, the animals were euthanized by whole blood collection from the abdominal aorta under anesthesia with isoflurane. The sampling time point was selected as the time around T max based on the result of the blood ^14C‐concentration study. Then, the liver and kidney were dissected out, and the amount of ^14C was measured. Aliquots of heparinized blood samples were separated into blood cells and plasma by centrifugation at 2000g for 10 min at 4°C. The total weight of the liver and kidney was determined for each animal. Two aliquots of plasma and tissue samples (approximately 0.05–0.1 g) were weighed in a glass vial, and the radioactivity was measured.
Approximately 0.3 g of liver, kidney, and plasma samples were pooled, respectively, for each dose and gender to obtain samples for analysis. Pooled liver, kidney, and plasma (ca. 1 g each) samples were homogenized with an approximately 3‐fold volume (v/w) of methanol using the mixer mill MM400 (5 min, 25 cycles/second, Retsch GmbH) and centrifuged (10 000g, 5 min, 4°C) to separate the supernatants from the residues. The extraction was repeated one additional time. The supernatants obtained were pooled and labeled liver, kidney, and plasma extracts. These samples were concentrated and then subjected to TLC analysis. For calculation of extraction efficacy, the post‐extraction solids (PESs) from the tissues and plasma extracts were sampled in low potassium glass vials. PESs were solubilized with 3 M potassium hydroxide solution (approximately 1 ml), then bleached with 30% hydrogen peroxide solution, and finally mixed with 10 ml of Hionic‐Fluor to measure the radioactivity.

[1] abbreviates: kidney, oral, with rifampicin (OATP inhibitor) 200 mg/kg p.o., Male, 2 h after [^14C]Epyrifenacil 1 mg/kg p.o. + Rifampicin 200 mg/kg p.o., read-out: Metabolite concentration, Kidney.
[2] abbreviates: kidney, oral, Female, 2 h after [^14C]Epyrifenacil 1 mg/kg p.o., read-out: Metabolite concentration, Kidney.
Where [3] appears, read: kidney, oral, Male, 2 h after [^14C]Epyrifenacil 1 mg/kg p.o., read-out: Metabolite concentration, Kidney.
Setting [4] is: liver, oral, Female, 2 h after [^14C]Epyrifenacil 1 mg/kg p.o., read-out: Metabolite concentration, Liver.
Where [5] appears, read: liver, oral, Male, 2 h after [^14C]Epyrifenacil 1 mg/kg p.o., read-out: Metabolite concentration, Liver.
Setting [6] is: plasma, oral, Female, 2 h after [^14C]Epyrifenacil 1 mg/kg p.o., read-out: Metabolite concentration, Plasma.
[7] abbreviates: plasma, oral, Male, 2 h after [^14C]Epyrifenacil 1 mg/kg p.o., pooled samples, read-out: Metabolite concentration, Plasma.

On to `Cn1c(C(F)(F)F)cc(=O)n(-c2cc(Oc3ccc[nH]c3=O)c(Cl)cc2F)c1=O` [M6], for which the concentration at 2 h by setting is: under setting [1], 1 ng/g; under setting [2], 4 ng/g; under setting [3], 8 ng/g; under setting [4], 6 ng/g; under setting [5], 12 ng/g; under setting [6], 15 ng/g. In addition, the concentration at 2 h under setting [7] was 3 ng/g.

Consider `CN1C(=O)N(c2cc(Oc3cccnc3OCC(=O)O)c(Cl)cc2F)C(=O)CC1(O)C(F)(F)F` (centres unmarked) [M4], for which the concentration at 2 h reads like this: (female, in vivo, 1 mg/kg, Female, 2 h after [^14C]Epyrifenacil 1 mg/kg p.o., read-out: Metabolite concentration, Kidney) 23 ng/g; (female, in vivo, 1 mg/kg, Female, 2 h after [^14C]Epyrifenacil 1 mg/kg p.o., read-out: Metabolite concentration, Liver) 858 ng/g; (female, in vivo, Female, 2 h after [^14C]Epyrifenacil 1 mg/kg p.o. + Digoxin 100 mg/kg i.p., read-out: Metabolite concentration, Kidney) 30 ng/g; (female, in vivo, Female, 2 h after [^14C]Epyrifenacil 1 mg/kg p.o. + Digoxin 100 mg/kg i.p., read-out: Metabolite concentration, Liver) 553 ng/g; (female, in vivo, Female, 2 h after [^14C]Epyrifenacil 1 mg/kg p.o. + Digoxin 200 mg/kg p.o., read-out: Metabolite concentration, Kidney) 7 ng/g; (female, in vivo, Female, 2 h after [^14C]Epyrifenacil 1 mg/kg p.o. + Digoxin 200 mg/kg p.o., read-out: Metabolite concentration, Liver) 291 ng/g. The concentration at 2 h runs as follows: (female, in vivo, Female, 2 h after [^14C]Epyrifenacil 1 mg/kg p.o. + Rifampicin 200 mg/kg p.o., read-out: Metabolite concentration, Kidney) 15 ng/g; (female, in vivo, Female, 2 h after [^14C]Epyrifenacil 1 mg/kg p.o. + Rifampicin 200 mg/kg p.o., read-out: Metabolite concentration, Liver) 129 ng/g; (female, in vivo, Female, 2 h after [^14C]Epyrifenacil 1 mg/kg p.o. + Rifampicin 200 mg/kg p.o., read-out: Metabolite concentration, Plasma) 22 ng/g; (male, in vivo, 1 mg/kg, Male, 2 h after [^14C]Epyrifenacil 1 mg/kg p.o., pooled samples, read-out: Metabolite concentration, Plasma) 3 ng/g; (male, in vivo, 1 mg/kg, Male, 2 h after [^14C]Epyrifenacil 1 mg/kg p.o., read-out: Metabolite concentration, Kidney) 9 ng/g; (male, in vivo, 1 mg/kg, Male, 2 h after [^14C]Epyrifenacil 1 mg/kg p.o., read-out: Metabolite concentration, Liver) 1030 ng/g. In addition, the concentration at 2 h (male, in vivo, Male, 2 h after [^14C]Epyrifenacil 1 mg/kg p.o. + Digoxin 100 mg/kg i.p., read-out: Metabolite concentration, Kidney) worked out at 14 ng/g; the concentration at 2 h (male, in vivo, Male, 2 h after [^14C]Epyrifenacil 1 mg/kg p.o. + Digoxin 100 mg/kg i.p., read-out: Metabolite concentration, Liver) was found to be 651 ng/g; the concentration at 2 h (male, in vivo, Male, 2 h after [^14C]Epyrifenacil 1 mg/kg p.o. + Digoxin 200 mg/kg p.o., read-out: Metabolite concentration, Kidney) was found to be 5 ng/g; the concentration at 2 h (male, in vivo, Male, 2 h after [^14C]Epyrifenacil 1 mg/kg p.o. + Digoxin 200 mg/kg p.o., read-out: Metabolite concentration, Liver) was 157 ng/g; the concentration at 2 h (male, in vivo, Male, 2 h after [^14C]Epyrifenacil 1 mg/kg p.o. + Rifampicin 200 mg/kg p.o., read-out: Metabolite concentration, Kidney) turned out to be 22 ng/g; the concentration at 2 h (male, in vivo, Male, 2 h after [^14C]Epyrifenacil 1 mg/kg p.o. + Rifampicin 200 mg/kg p.o., read-out: Metabolite concentration, Liver) is 172 ng/g. For the same compound, the concentration at 2 h (male, in vivo, Male, 2 h after [^14C]Epyrifenacil 1 mg/kg p.o. + Rifampicin 200 mg/kg p.o., read-out: Metabolite concentration, Plasma) was 4 ng/g.

As for `CNC(=O)Nc1cc(Oc2cccnc2OCC(=O)O)c(Cl)cc1F` [M2], the concentration at 2 h reads like this: under setting [1], 1 ng/g; under setting [2], 2 ng/g; under setting [3], 4 ng/g; under setting [4], 11 ng/g; under setting [5], 24 ng/g; (plasma, oral, with rifampicin (OATP inhibitor) 200 mg/kg p.o., Female, 2 h after [^14C]Epyrifenacil 1 mg/kg p.o. + Rifampicin 200 mg/kg p.o., read-out: Metabolite concentration, Plasma) 16 ng/g. The concentration at 2 h runs as follows: (plasma, oral, with rifampicin (OATP inhibitor) 200 mg/kg p.o., Male, 2 h after [^14C]Epyrifenacil 1 mg/kg p.o. + Rifampicin 200 mg/kg p.o., read-out: Metabolite concentration, Plasma) 35 ng/g; under setting [6], 55 ng/g; under setting [7], 20 ng/g.
